Results: ChEMBL document CHEMBL1129432, “Structure-activity relationships of a series of novel (piperazinylbutyl)thiazolidinone antipsychotic agents related to 3-[4-[4-(6-fluorobenzo[b]thien-3-yl)-1-piperazinyl]butyl]-2,5,5- trimethyl-4-thiazolidinone maleate” (J Med Chem, 1996)

Columns and labels:
Rattus norvegicus [1] = assay: Percentage change in Social interaction when compound administered at a doe of 10 mg/kg ip in rats; type: functional; details: route intraperitoneal
Rattus norvegicus [2] = assay: Percentage change in Social interaction when compound administered at a doe of 5 mg/kg ip in rats; type: functional; details: route intraperitoneal
Rattus norvegicus [3] = assay: Percentage change in Total activity (anti psychotic) when compound administered at a doe of 10 mg/kg ip in rats; type: functional; details: route intraperitoneal
Rattus norvegicus [4] = assay: Percentage change in Total activity (anti psychotic) when compound administered at a doe of 5 mg/kg ip in rats; type: functional; details: route intraperitoneal
Rattus norvegicus [5] = assay: Percentage change in chronic single unit sampling when compound given at a dose of 20 mg/kg ip in rats; type: functional; details: route intraperitoneal
Rattus norvegicus [6] = assay: Percentage change in chronic single unit sampling when compound given at a dose of 20 mg/kg ip in rats (Expt-2); type: functional; details: route intraperitoneal
[7] = Compound at an intraperitoneal dose of 40 mg/Kg was tested for the inhibition of apomorphine-induced stereotypy in rat; type: functional; design: scale not given: the % may be the effect or the level left
Rattus norvegicus [8] = assay: Anti psychotic effect Social interaction when compound administered at a doe of 10 mg/kg ip in rats; type: functional; details: route intraperitoneal
Rattus norvegicus [9] = assay: Anti psychotic effect Social interaction when compound administered at a doe of 5 mg/kg ip in rats; type: functional; details: route intraperitoneal
Rattus norvegicus [10] = assay: Total activity (anti psychotic) when compound administered at a doe of 10 mg/kg ip in rats; type: functional; details: route intraperitoneal
Rattus norvegicus [11] = assay: Total activity (anti psychotic) when compound administered at a doe of 5 mg/kg ip in rats; type: functional; details: route intraperitoneal
Rattus norvegicus [12] = assay: Percentage change in Total activity (anti psychotic) when compound administered at a doe of 0.05 mg/kg ip in rats; type: functional; details: route intraperitoneal
Rattus norvegicus [13] = assay: Percentage change in Total activity (anti psychotic) when compound administered at a doe of 0.125 mg/kg ip in rats; type: functional; details: route intraperitoneal
Rattus norvegicus [14] = assay: Percentage change in Social interaction when compound administered at a doe of 0.05 mg/kg ip in rats; type: functional; details: route intraperitoneal
Rattus norvegicus [15] = assay: Percentage change in Social interaction when compound administered at a doe of 0.125 mg/kg ip in rats; type: functional; details: route intraperitoneal
Rattus norvegicus [16] = assay: Percentage change in chronic single unit sampling when compound given at a dose of 0.5 mg/kg ip in rats; type: functional; details: route intraperitoneal
Rattus norvegicus [17] = assay: Percentage change in chronic single unit sampling when compound given at a dose of 0.5 mg/kg ip in rats (Expt-2); type: functional; details: route intraperitoneal
[18] = Intraperitoneal effective dose required for inhibition of apomorphine-induced stereotypy in rat; type: functional; details: ip
Rattus norvegicus [19] = assay: Anti psychotic effect Social interaction when compound administered at a doe of 0.05 mg/kg ip in rats; type: functional; details: route intraperitoneal
Rattus norvegicus [20] = assay: Anti psychotic effect Social interaction when compound administered at a doe of 0.125 mg/kg ip in rats; type: functional; details: route intraperitoneal
Rattus norvegicus [21] = assay: Total activity (anti psychotic) when compound administered at a doe of 0.125 mg/kg ip in rats; type: functional; details: route intraperitoneal
[22] = molecular target: T1, 5-hydroxytryptamine receptor 1A (Rattus norvegicus, UniProt P19327); assay: Binding affinity towards serotonin 5-HT1A receptor was determined in rat hippocampus using [3H]8-OH-DPAT as ligand; type: tissue-based
T1 sequence (P19327 whole entry): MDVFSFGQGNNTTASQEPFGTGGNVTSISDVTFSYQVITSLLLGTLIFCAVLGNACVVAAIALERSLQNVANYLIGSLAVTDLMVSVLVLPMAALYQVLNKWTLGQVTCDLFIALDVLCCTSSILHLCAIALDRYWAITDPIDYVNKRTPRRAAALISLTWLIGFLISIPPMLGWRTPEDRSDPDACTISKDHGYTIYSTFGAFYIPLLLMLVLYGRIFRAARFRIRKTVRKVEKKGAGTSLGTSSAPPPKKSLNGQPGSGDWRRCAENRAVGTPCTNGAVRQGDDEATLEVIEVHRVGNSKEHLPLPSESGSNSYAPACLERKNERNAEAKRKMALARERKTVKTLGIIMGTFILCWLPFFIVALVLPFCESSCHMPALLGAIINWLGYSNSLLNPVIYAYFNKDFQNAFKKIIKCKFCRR

[23] = molecular target: Serotonin 2 (5-HT2) receptor (Rattus norvegicus, UniProt P30994+P08909+P14842); assay: Binding affinity towards serotonin 5-HT2 receptor was determined in rat cortex using [3H]spiperone as ligand
D(2) dopamine receptor = D(2) dopamine receptor (Rattus norvegicus, UniProt P61169); assay: Binding affinity towards Dopamine receptor D2 was determined in rat striatum using [3H]- spiperone as radioligand; type: tissue-based
Rattus norvegicus [24] = assay: Compound at an intraperitoneal dose of 20 mg/Kg was tested for the inhibition of apomorphine-induced stereotypy in rat; type: functional; design: scale not given: the % may be the effect or the level left
Rattus norvegicus [25] = assay: Compound at an intraperitoneal dose of 30 mg/Kg was tested for the inhibition of apomorphine-induced stereotypy in rat; type: functional; design: scale not given: the % may be the effect or the level left
[26] = molecular target: T2, 5-hydroxytryptamine receptor 2A (Homo sapiens, UniProt P28223); assay: Inhibitory concentration against human 5-HT2A receptor in BEK cells; type: cell-based
[27] = molecular target: T2, 5-hydroxytryptamine receptor 2A; assay: Binding affinity towards human 5-HT2A receptor in BEK cells; type: cell-based
D(4) dopamine receptor [28] = molecular target: T3, D(4) dopamine receptor (Homo sapiens, UniProt P21917); assay: Binding affinity against human Dopamine receptor D4.2 in CHO cells; type: cell-based
T3 sequence (P21917 whole entry): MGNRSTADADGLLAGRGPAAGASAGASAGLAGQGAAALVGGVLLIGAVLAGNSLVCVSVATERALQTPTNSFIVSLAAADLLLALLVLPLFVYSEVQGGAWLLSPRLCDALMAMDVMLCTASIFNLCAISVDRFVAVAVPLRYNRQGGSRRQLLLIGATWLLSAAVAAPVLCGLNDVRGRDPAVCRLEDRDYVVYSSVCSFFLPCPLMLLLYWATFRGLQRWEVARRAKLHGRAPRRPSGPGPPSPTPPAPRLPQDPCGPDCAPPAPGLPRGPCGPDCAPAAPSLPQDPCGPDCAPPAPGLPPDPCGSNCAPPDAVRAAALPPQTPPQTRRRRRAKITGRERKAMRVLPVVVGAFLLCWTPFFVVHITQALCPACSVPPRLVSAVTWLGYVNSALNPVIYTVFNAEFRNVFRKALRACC

Rattus norvegicus [29] = assay: Percentage change in Social interaction when compound administered at a doe of 2.5 mg/kg ip in rats; type: functional; details: route intraperitoneal
Rattus norvegicus [30] = assay: Percentage change in Total activity (anti psychotic) when compound administered at a doe of 1.25 mg/kg ip in rats; type: functional; details: route intraperitoneal
Rattus norvegicus [31] = assay: Percentage change in Total activity (anti psychotic) when compound administered at a doe of 2.5 mg/kg ip in rats; type: functional; details: route intraperitoneal
Rattus norvegicus [32] = assay: Percentage change in Social interaction when compound administered at a doe of 1.25 mg/kg ip in rats; type: functional; details: route intraperitoneal
Rattus norvegicus [33] = assay: Percentage change in chronic single unit sampling when compound given at a dose of 10 mg/kg ip in rats; type: functional; details: route intraperitoneal
Rattus norvegicus [34] = assay: Percentage change in chronic single unit sampling when compound given at a dose of 10 mg/kg ip in rats(Expt-2); type: functional; details: route intraperitoneal
Rattus norvegicus [35] = assay: Anti psychotic effect Social interaction when compound administered at a doe of 1.25 mg/kg ip in rats; type: functional; details: route intraperitoneal
Rattus norvegicus [36] = assay: Anti psychotic effect Social interaction when compound administered at a doe of 2.5 mg/kg ip in rats; type: functional; details: route intraperitoneal
Rattus norvegicus [37] = assay: Total activity (anti psychotic) when compound administered at a doe of 2.5 mg/kg ip in rats; type: functional; details: route intraperitoneal
Rattus norvegicus [38] = assay: Total activity (anti psychotic) when compound administered at a doe of 1.25 mg/kg ip in rats; type: functional; details: route intraperitoneal
D(4) dopamine receptor [39] = molecular target: T3, D(4) dopamine receptor
Description: Inhibitory concentration against human Dopamine receptor D4.2 in CHO cells

Rattus norvegicus [40] = assay: Compound at an intraperitoneal dose of 50 mg/Kg was tested for the inhibition of apomorphine-induced stereotypy in rat; type: functional; design: scale not given: the % may be the effect or the level left
Rattus norvegicus [41] = assay: Compound at an intraperitoneal dose of 60 mg/Kg was tested for the inhibition of apomorphine-induced stereotypy in rat; type: functional; design: scale not given: the % may be the effect or the level left
Rattus norvegicus [42] = assay: Percentage change in chronic single unit sampling when compound given at a dose of 10 mg/kg ip (Expt-2); type: functional; details: route intraperitoneal

T2 sequence (P28223 whole entry): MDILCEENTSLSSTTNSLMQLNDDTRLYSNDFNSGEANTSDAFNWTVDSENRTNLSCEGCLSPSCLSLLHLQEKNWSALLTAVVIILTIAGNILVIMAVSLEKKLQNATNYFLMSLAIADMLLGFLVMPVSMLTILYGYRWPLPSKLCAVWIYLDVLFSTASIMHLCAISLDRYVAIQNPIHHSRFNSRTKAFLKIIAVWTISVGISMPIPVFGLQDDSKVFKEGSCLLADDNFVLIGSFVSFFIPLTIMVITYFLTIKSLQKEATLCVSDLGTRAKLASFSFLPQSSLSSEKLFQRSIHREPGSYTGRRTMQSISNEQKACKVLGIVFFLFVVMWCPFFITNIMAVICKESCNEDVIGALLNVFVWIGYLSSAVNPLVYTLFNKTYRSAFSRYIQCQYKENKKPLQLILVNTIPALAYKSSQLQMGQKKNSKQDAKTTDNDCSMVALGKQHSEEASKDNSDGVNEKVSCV
Chain of D(2) dopamine receptor (P61169 whole entry): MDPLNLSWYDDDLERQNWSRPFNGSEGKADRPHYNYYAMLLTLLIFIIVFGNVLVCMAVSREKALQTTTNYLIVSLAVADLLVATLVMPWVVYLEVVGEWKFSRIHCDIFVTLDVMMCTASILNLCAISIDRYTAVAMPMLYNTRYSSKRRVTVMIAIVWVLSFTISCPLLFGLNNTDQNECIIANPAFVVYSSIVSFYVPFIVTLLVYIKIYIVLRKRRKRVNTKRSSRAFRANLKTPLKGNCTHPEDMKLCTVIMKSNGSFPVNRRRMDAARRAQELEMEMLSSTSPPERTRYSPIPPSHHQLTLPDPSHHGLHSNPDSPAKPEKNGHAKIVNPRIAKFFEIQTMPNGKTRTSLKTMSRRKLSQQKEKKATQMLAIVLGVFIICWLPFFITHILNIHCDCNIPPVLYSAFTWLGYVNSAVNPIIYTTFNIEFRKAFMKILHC

SMILES	Change (Rattus norvegicus [2]) [%]	Change (Rattus norvegicus [4]) [%]	Change (Rattus norvegicus [5]) [%]	Change (Rattus norvegicus [6]) [%]	Social interaction (Rattus norvegicus [9])	Total activity (Rattus norvegicus [11])	IC50 [22] [nM]	IC50 [23] [nM]	IC50 (D(2) dopamine receptor) [nM]	IC50 [26] [nM]	Ki [27] [nM]	Ki (D(4) dopamine receptor [28]) [nM]	Change (Rattus norvegicus [29]) [%]	Change (Rattus norvegicus [30]) [%]	Change (Rattus norvegicus [31]) [%]	Change (Rattus norvegicus [32]) [%]	Change (Rattus norvegicus [33]) [%]	Social interaction (Rattus norvegicus [35])	Social interaction (Rattus norvegicus [36])	Total activity (Rattus norvegicus [37])	also measured
CN1CCN(C2=Nc3cc(Cl)ccc3Nc3ccccc32)CC1 [CLOZAPINE]	14	-18	-79	37	123.3	140.3															Change (Rattus norvegicus [1]): 40%; Change (Rattus norvegicus [3]): -15%; Activity [7]: 33%; Social interaction (Rattus norvegicus [8]): 151.3; Total activity (Rattus norvegicus [10]): 146.3
O=C(CCCN1CCC(O)(c2ccc(Cl)cc2)CC1)c1ccc(F)cc1 [HALOPERIDOL]																					Change (Rattus norvegicus [12]): -11%; Change (Rattus norvegicus [13]): -22%; Change (Rattus norvegicus [14]): -19%; Change (Rattus norvegicus [15]): -32%; Change (Rattus norvegicus [16]): -35%; Change (Rattus norvegicus [17]): -30%; ED50 [18]: 0.6 mg/kg; Social interaction (Rattus norvegicus [19]): 77.2; Social interaction (Rattus norvegicus [20]): 65.6; Total activity (Rattus norvegicus [21]): 112.3
CC1SC2(CCCC2)C(=O)N1CCCCN1CCN(c2nsc3ccccc23)CC1 (centres undefined)							3	9.6	154												Activity (Rattus norvegicus [24]): 10%; Activity (Rattus norvegicus [25]): 100%
CC1SC(C)(C)C(=O)N1CCCCN1CCN(c2csc3cc(F)ccc23)CC1 (centres undefined)			-57	32			61	56		17	8	5	9	1	-32	14	-34	114	109.1	96	Change (Rattus norvegicus [34]): 14%; Total activity (Rattus norvegicus [38]): 144.3; IC50 (D(4) dopamine receptor [39]): 29 nM
CC1SC2(CCCC2)C(=O)N1CCCCN1CCN(c2csc3cc(F)ccc23)CC1 (centres undefined)	5	-36	-39	-8	97.3	82.1	189	131	954	8	4	117	14	1	18	13	-27	108	106.5	106.3	Activity (Rattus norvegicus [40]): 20%; Activity (Rattus norvegicus [41]): 50%; Change (Rattus norvegicus [42]): -12%; Total activity (Rattus norvegicus [38]): 146; IC50 (D(4) dopamine receptor [39]): 713 nM
